Patent US20190264255A1, “Competition Test of an Enzyme Substrate with Internal Compensation for Enzyme Activity” (TECHNISCHE UNIVERSITÄT DARMSTADT, priority 2016, published 2019)

Target: Thrombin (Homo sapiens, UniProt P00734)
Experiment: Thrombin cleavage of Z-Gly-Pro-Arg-p-phenylenediamine, photometric detection by oxidative coupling with a-naphthol
Assay type: biochemical
Settings: pH 8; buffer as for fluorescence measurement + 2% Triton X100; substrate cleavage by thrombin
Method: Buffer, substrate and fibrinogen were placed in a 96-well microtiter plate. The enzyme was injected with the injector attached to the TECAN reader. The experimental conditions are set out in the following information. • Substrate conc. Z-Gly-Pro-Arg-aminomethylcoumarin 10 mM in DMSO • Substrate dil. Z-Gly-Pro-Arg-aminomethylcoumarin 1 mM in DMSO • Test buffer 50 mM Tris, 250 mM NaCl, 0.1% PEG6000, pH 8.0 • Haemocomplettan 100 mg/ml dist. water≅44 mg/ml of fibrinogen • Enzyme Solution 1 U/ml in 10 mM HEPES, 0.1% bovine serum albumin, pH 6.4 • Temperature 30 C
Thrombin also cleaves Z-Gly-Pro-Arg-p-phenylenediamine. The product could be detected by oxidative coupling with a-naphthol in the presence of hexacyanoferrate III. The result was a violet dye with Amax=565 nm. The Michaelis-Menten constant at pH 8 (buffer as for fluorescence measurement+2% Triton X100) was 6 μM.

## Z-Gly-Pro-Arg-p-phenylenediamine
  Michaelis-Menten constant: 6 µM
